The results in this text go back to paper PMC2765170 (PLoS ONE, 2009).

Data set [1] addresses CoaE (M. tuberculosis dephosphocoenzyme A kinase, Rv1631) (Mycobacterium tuberculosis, UniProt P9WPA3). Briefly: biochemical. The data set is classed as binding. The settings on record: read-out: Ka (M^-1*104) (converted).
In data set [2] the test system is Nc1ncnc2c1ncn2[C@H]1C[C@H](O)[C@@H](COP(=O)(O)OP(=O)(O)OP(=O)(O)O)O1. In words: purified protein. The settings on record: alternate phosphate donor, co-substrate DCoA.
Data set [3] deals with Nc1ncnc2c1ncn2[C@@H]1O[C@H](COP(=O)(O)OP(=O)(O)OP(=O)(O)O)[C@@H](O)[C@H]1O. Briefly: purified protein. The note with it: co-substrate DCoA, MgCl2, 25°C.
The subject of data set [4] is CC(C)(COP(=O)(O)OP(=O)(O)OC[C@H]1O[C@@H](n2cnc3c(N)ncnc32)[C@H](O)[C@@H]1O)[C@@H](O)C(=O)NCCC(=O)NCCS. In words: purified protein. The note with it: co-substrate ATP, MgCl2, 25°C.

Chain of CoaE (M. tuberculosis dephosphocoenzyme A kinase, Rv1631) (P9WPA3 whole entry): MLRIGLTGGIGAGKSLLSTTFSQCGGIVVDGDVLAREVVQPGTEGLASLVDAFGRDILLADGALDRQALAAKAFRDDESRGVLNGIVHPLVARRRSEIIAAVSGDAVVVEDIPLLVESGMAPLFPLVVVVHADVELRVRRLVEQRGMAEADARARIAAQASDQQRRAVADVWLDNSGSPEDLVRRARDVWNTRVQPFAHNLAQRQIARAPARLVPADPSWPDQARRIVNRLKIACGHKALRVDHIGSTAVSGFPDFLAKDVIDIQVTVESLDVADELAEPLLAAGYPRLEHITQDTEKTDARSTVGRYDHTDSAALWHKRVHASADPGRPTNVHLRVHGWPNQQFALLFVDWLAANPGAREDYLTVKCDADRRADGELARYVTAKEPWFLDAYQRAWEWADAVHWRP

For the compound `Nc1ncnc2c1ncn2[C@@H]1O[C@H](COP(=O)(O)OP(=O)(O)O)[C@@H](O)[C@H]1O` [ADP], the Kd in data set [1] was 49.3 µM.
Same read-out and setting: the result for `Nc1ccn([C@@H]2O[C@H](COP(=O)(O)OP(=O)(O)OP(=O)(O)O)[C@@H](O)[C@H]2O)c(=O)n1` [CTP] reads 62.9 µM.
Still for that read-out and setting: the result for `Nc1ncnc2c1ncn2[C@H]1C[C@H](O)[C@@H](COP(=O)(O)OP(=O)(O)OP(=O)(O)O)O1` [dATP] reads 57.5 µM.
“CoaE (M. tuberculosis dephosphocoenzyme A kinase, Rv1631) (Mycobacterium tuberculosis H37Rv)”: the Km was found to be 320 µM in data set [2], 56.8 µM in data set [3] and 34.9 µM in data set [4].
